Patent US20230285556A1, “METHODS AND COMPOSITIONS FOR TREATING CANCER” (Omeros Corporation, priority 2021, published 2023)
pEC50: −log10 of the molar value.

What was measured:
[1] = molecular target: T1, GPR174 (Homo sapiens, UniProt Q9BXC1); assay: CRA (EC50) of GPR174 inhibitor compounds, tested as described in US 20200276190; format: cell-based; settings: multiple values = separate experiments
Method: (§1) Where present, multiple EC50 values correspond to values obtained in separate experiments. […] The activity of the compounds was tested as described in US 20200276190, the disclosure of which is incorporated herein by reference.

[2] = tested on: human CD8 T cells; assay: Example 3: human CD8 T cell 10-day expansion with IL-7+IL-15 and inhibitors, IL-2 after restimulation; format: cell-based; settings: 300 nM Compound #10, 500 nM Compound #49, 100 nM ZM-241385, 18 hours restimulation
Method: (§2) Purified human CD8 T cells were cultured in 24-well plates with the following conditions per well: • 2 mL X-VIVO™ 15 media (Lonza) • 1 million human CD8 T cells • 2 million Human T-Activator CD3/CD28 Dynabeads® (ThermoFisher) • 10 ng/mL human IL-7 (R&D Systems) • 10 ng/mL human IL-15 (R&D Systems)
and the following individual conditions for FIG. 4: • 1. DMSO vehicle control • 2. […] 300 nM GPR174 inhibitor Compound #10 • 4.
On days 4 and 7 (FIG. 4) or days 3, 5, and 7 (FIG. 5), cultures were washed and seeded at 0.5 cells million per well with the same GPR174 and A2A inhibitor conditions, and with 10 ng/mL IL-7 and 10 ng/mL IL-15.
After 18 hours of culture, supernatants were harvested and analyzed for IL-2 (MesoScale Discovery).

[3] = molecular target: T1, GPR174; assay: Human GPR174 CRE activity / Gs signaling; format: cell-based
Method: as §1

[4] = tested on: human CD8 T cells; assay: Example 4: human CD8 T cell expansion with GPR174, A2A, PKA or EPAC inhibitors, IL-2 after restimulation; format: cell-based; settings: 300 nM Compound #10, 100 nM ZM-241385, 500 μM Rp-8-Br-cAMPS, 5 μM ESI-09; 5.5 hours restimulation
Method: as §2, with “(Lonza) • 0.4 million human” for “(Lonza) • 1 million human”, “T cells (Donor A) • 2” for “T cells • 2”
and the following individual conditions, ±300 nM Compound #10: • 1. DMSO vehicle control • 2. […] 500 μM Rp-8-Br-cAMPS • 4. 5 μM ESI-09
On days 3, 5, and 7, cultures were washed and seeded at 0.5 cells million per well with the same small molecule inhibitor conditions, and with IL-7 and IL-15.
After 5.5 hours of culture, supernatants were harvested and analyzed for IL-2 content (MesoScale Discovery).

[5] = tested on: human CD8 T cells; assay: Example 5: T cell number increase during 10-day expansion; format: cell-based
Method: (§3) DMSO vehicle control • 2. […] 500 μM Rp-8-Br-cAMPS • 4. […] 0.5 μM doramapimod • 6. Media control
(§4) or the following individual conditions for the experiment shown in FIG. 8, each ±0.5 μM doramapimod: • 1. DMSO vehicle control • 2. 500 μM Rp-8-Br-cAMPS • 3. […] 5 μM ESI-09
(§5) On days 3, 5, and 7, cultures were washed and seeded at 0.5 cells million per well with the same small molecule inhibitor conditions, and with IL-7 and IL-15. On day 10, cells were washed twice (12 mL media each), and restimulated in quadruplicate in 96-well round-bottom plates with the following conditions: • 0.1 mL X-VIVO™ 15 media (Lonza) • 0.05 million cells from each condition • 0.1 million Human T-Activator CD3/CD28 Dynabeads® (ThermoFisher)

[6] = tested on: human CD8 T cells; assay: Example 5: human CD8 T cell expansion with cAMP pathway and p38 inhibitors, IL-2 after restimulation; format: cell-based; settings: 500 μM Rp-8-Br-cAMPS, 0.5 μM doramapimod; for IL-2 production following restimulation, fold above vehicle control (FIG. 8): 10 μM HJC-0197, 5 μM ESI-09
Method: as §3, §4, §5
(§6) After overnight culture, supernatants were harvested and analyzed for IL-2 content (MesoScale Discovery).

[7] = tested on: OT-I TCR transgenic CD8 T cells; assay: Example 6: immunophenotyping of OT-I T cells on day 8; format: cell-based, mouse; settings: 8 days of culture
Method: (§7) and the following individual conditions: • 1. DMSO vehicle control • 2. 0.2 μM doramapimod • 3. 500 μM Rp-8-Br-cAMPS • 4. 0.2 μM doramapimod+500 μM Rp-8-Br-cAMPS
On days 2, 4, 6, and 8, cells were counted, washed, and reseeded at 0.5 million per well in 2 mL media with the same 4 doramapimod/Rp-8-Br-cAMPS conditions and with recombinant mouse IL-2 and IL-7 (5 ng/mL each). On day 8, cells were immunophenotyped with the following antibodies: anti-CD8 BV570, anti-CD62L eFluor450, anti-TCF1/TCF7 PE, anti-CD39 PerCP-eFluor710, anti-CD69 BV605, anti-PD-1 BV711, anti-CTLA-4 APC, and LIVE/DEAD™ Fixable Green Dead Cell Stain.

[8] = tested on: OT-I TCR transgenic CD8 T cells; assay: Example 6: OT-I CD8 T cell expansion with PKA and p38 inhibitors, IL-2 after restimulation with EG7 cells; format: cell-based, mouse; settings: 0.2 μM doramapimod, 500 μM Rp-8-Br-cAMPS
Method: as §7
On day 8, cells were immunophenotyped with the following antibodies: anti-CD8 BV570, anti-CD62L eFluor450, anti-TCF1/TCF7 PE, anti-CD39 PerCP-eFluor710, anti-CD69 BV605, anti-PD-1 BV711, anti-CTLA-4 APC, and LIVE/DEAD™ Fixable Green Dead Cell Stain.
as §6

[9] = tested on: OT-I TCR transgenic CD8 T cells; assay: Example 8: OT-I CD8 T cell 9-day expansion with PKA, p38, PI3Kδ inhibitors, IL-2 after restimulation with EG7 cells; format: cell-based, mouse
Method: DMSO vehicle control • 2. 0.5 μM doramapimod • 3. 500 μM Rp-8-Br-cAMPS • 4. 0.5 μM doramapimod+500 μM Rp-8-Br-cAMPS • 5. 1 μM idelalisib • 6. 1 μM idelalisib+0.5 μM doramapimod • 7. 1 μM idelalisib+500 μM Rp-8-Br-cAMPS • 8. 1 μM idelalisib+0.5 μM doramapimod+500 μM Rp-8-Br-cAMPS
On days 2, 4, 6, and 8, cells were counted, washed and reseeded at 0.5 million per well in 2 mL media with the same 8 conditions and with recombinant mouse IL-2 and IL-7 (5 ng/mL each). […] Cells were also washed three times (12 mL media each), and restimulated in quintuplicate in 96-well round-bottom plates with the following conditions: • 0.1 mL RP10 media • 0.05 million OT-I T cells from each condition • 0.05 million EG7 cells
as §6

[10] = tested on: EG7 tumors; assay: Example 7: adoptive transfer of inhibitor-precultured OT-1 T cells into EG7 tumor-bearing mice; format: in vivo, mouse
Method: as §7
On day 6 cells were seeded in 6-well plates with […] per well, and on day 8 cells were seeded in T75 flasks in 30 mL media to obtain enough cells to transfer into EG7 tumor-bearing mice.
C57BL/6 female mice were implanted with 6 million EG7 tumor cells subcutaneously on day 4 of the OT-1 T cell expansion. On day 6 of tumor growth (day 10 of OT-1 T cell expansion) OT-1 T cells were washed and injected retro-orbitally into tumor bearing mice that had been sorted into 4 groups with equal tumor volume distributions (n=8). Via retroorbital injection, mice received 2 million OT1 T cells of each of the 4 culture conditions. Tumor volume (mm^3) was calculated as 0.5×(length×width^2), where length represents the largest tumor diameter and width represents the perpendicular tumor diameter. Mice were euthanized when the sum of the two measurements exceeded 30 mm.

[11] = tested on: OT-I TCR transgenic CD8 T cells; assay: Example 9: OT-I CD8 T cell 10-day expansion, immunophenotyping and IL-2 capacity; format: cell-based, mouse
[12] = Idelalisib (agent together with 1 μM idelalisib)

T1 sequence (Q9BXC1 whole entry): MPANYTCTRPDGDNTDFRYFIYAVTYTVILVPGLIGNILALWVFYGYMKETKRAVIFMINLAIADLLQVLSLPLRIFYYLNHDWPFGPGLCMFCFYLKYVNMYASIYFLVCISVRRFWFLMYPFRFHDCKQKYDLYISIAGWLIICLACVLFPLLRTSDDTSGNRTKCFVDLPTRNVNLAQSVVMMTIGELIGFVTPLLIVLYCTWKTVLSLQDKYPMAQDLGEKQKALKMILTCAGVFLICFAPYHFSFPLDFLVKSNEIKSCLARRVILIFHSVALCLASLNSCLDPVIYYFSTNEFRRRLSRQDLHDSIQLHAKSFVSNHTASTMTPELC

With `CCOc1ccc(C2C3=C(CCCC3=O)NC3=C2C(=O)c2ccccc23)cc1` (stereo not shown) [Compound 23] as the molecule, how does the pEC50 [1] read?
The pEC50 was 5.54.

For `CC(C)Oc1ccc(C2C3=C(CCCC3=O)NC3=C2C(=O)c2ccccc23)cc1` (stereo not shown) [Compound 49], which “IL-2 production following restimulation, fold vs vehicle (FIG. 5)” value [2] is on record?
The value was 1.9 fold.

`O=C(N/N=C/c1cc(Cl)ccc1O)c1ccncc1` [Compound 57] was tested. Which “Human GPR174 CRE Activity (type of modulation)” value (“Human GPR174 CRE Activity” below) [3] did it give?
The value was “Antagonist or allosteric modulator”.

Which “Human GPR174 CRE Activity” value [3] does the source give for `Cc1cc(C(=O)N/N=C/c2cc(Br)ccc2O)c(C)o1` [Compound 58] here?
The value was “Antagonist or allosteric modulator”.

`S=C(NCc1ccco1)Nc1ccc(I)cc1` [Compound 59] was tested. Which “Human GPR174 CRE Activity” value [3] did it give?
The value was “NM (“NM” refers to “non-modulator.”)”.

What does the source list for `CC(C)(C)c1cc(C(=O)/C(C#N)=N/Nc2cccc(Cl)c2)no1` [ESI-09]?
IL-2 production following restimulation, fold increase vs vehicle (FIG. 6) [4]: no impact on IL-2 production; T cell growth during the 10-day culture relative to vehicle-treated cells (FIG. 8) [5]: attenuated T cell expansion; IL-2 production following restimulation, fold above vehicle control (FIG. 8) [6]: absent or negligible

With `Cc1ccc(C)c(CSc2nc(C3CCCC3)c(C#N)c(=O)[nH]2)c1` [HJC-0197] as the molecule, how does the “IL-2 production following restimulation, fold above vehicle control (FIG. 8)” value [6] read?
The value was “absent or negligible”.

What does the source list for `Cc1ccc(-n2nc(C(C)(C)C)cc2NC(=O)Nc2ccc(OCCN3CCOCC3)c3ccccc23)cc1` [doramapimod]?
increase in cells expressing both CD62L and TCF1/TCF7 relative to vehicle control [7]: smaller increases; percentage of OT-I T cells expressing both CD39 and CD69 ([7]; vehicle 22%): smaller reductions; IL-2 production from 8-day OT-I cultures, fold vs vehicle control ([8]; day 8 restimulation with EG7 cells): 4.9 fold; IL-2 production from 10-day OT-I cultures, fold over vehicle control ([8]; day 10 restimulation with EG7 cells): 6.8 fold; T cell growth during the 10-day culture relative to vehicle-treated cells (FIG. 8) [5]: very little effect on cell growth; fold-increase in T cell number during the 10-day expansion (FIG. 7) ([5]; vehicle and media controls approximately 50-fold): approximately 50 fold; Fold-change in IL-2 production relative to Vehicle control [9, 12]: 65.0; Fold-change in IL-2 production relative to Vehicle control ([9]; column Vehicle (without idelalisib), 0.5 μM doramapimod, 500 μM Rp-8-Br-cAMPS): 2.2; IL-2 production following restimulation, fold above vehicle control (FIG. 8) [6]: 1.8 fold; IL-2 production following restimulation, fold vs vehicle (FIG. 7) ([6]; GPR174+A2A inhibitors, overnight restimulation): 3.2 fold; tumor growth / tumor volume after transfer of precultured OT-1 T cells ([10]; 2 million OT-1 T cells expanded 10 days with 0.2 μM doramapimod and/or 500 μM Rp-8-Br-cAMPS, retro-orbital, relative to vehicle control cells): significantly halted and delayed tumor growth; survival of tumor-bearing mice ([10]; OT-1 T cells precultured with inhibitor(s), relative to vehicle group): intermediate survival times

What does the source list for `CC[C@H](Nc1ncnc2[nH]cnc12)c1nc2cccc(F)c2c(=O)n1-c1ccccc1` [idelalisib]?
Fold-change in IL-2 production relative to Vehicle control [9, 12]: 24.0; TCF-1 positive cells ([11]; Vehicle 10%): 27%; CTLA-4 positive cells ([11]; Vehicle 41%): 28%; PD-1 positive cells ([11]; Vehicle 75%): 75%; CD39 positive cells ([11]; Vehicle 87%): 63%; TIM-3 positive cells ([11]; Vehicle 88%): 60%; CD69 positive cells ([11]; Vehicle 95%): 74%
